In assay [1] the test system is human fixed thrombin activated platelets. Description: Platelet aggregation inhibition (fibrinogen-induced). It counts as cell-based. The conditions noted are these: human fibrinogen added. How it is done:
The method for measuring platelet aggregation inhibition is essentially that of Ruggeri, et al., Proc. Natl. Acad. Sci. USA, 83, 5708-5712 (1986), using formalin-fixed platelets as prepared by Plow, et al., Proc. Natl. Acad. Sci. USA, 79, 3711-3715 (1982). A given amount of the compound of the present invention or other compound to be tested (10 to 100 µl of a 1 mg/ml solution) is incubated at 37°C with 400 µl of human fixed thrombin activated platelets for 2 minutes. 12.5 µl of human fibrinogen solution is added and aggregation is monitored using a platelet aggregation profiler (Model PAP-4). Controls consist of fibrinogen added to incubated platelets and the resulting aggregation is considered as 100%. Percent inhibition in the presence of a given concentration of test compound versus concentration of the compound is plotted and the concentration required to give 50% inhibition (IC50) is determined.

Assay [2] deals with T1, ESb mouse lymphoma heparanase (Mus musculus, UniProt Q6YGZ1).
T1 construct: endogenous in cells; host or cells: ESb mouse lymphoma cells
T1 sequence (Q6YGZ1 28-535): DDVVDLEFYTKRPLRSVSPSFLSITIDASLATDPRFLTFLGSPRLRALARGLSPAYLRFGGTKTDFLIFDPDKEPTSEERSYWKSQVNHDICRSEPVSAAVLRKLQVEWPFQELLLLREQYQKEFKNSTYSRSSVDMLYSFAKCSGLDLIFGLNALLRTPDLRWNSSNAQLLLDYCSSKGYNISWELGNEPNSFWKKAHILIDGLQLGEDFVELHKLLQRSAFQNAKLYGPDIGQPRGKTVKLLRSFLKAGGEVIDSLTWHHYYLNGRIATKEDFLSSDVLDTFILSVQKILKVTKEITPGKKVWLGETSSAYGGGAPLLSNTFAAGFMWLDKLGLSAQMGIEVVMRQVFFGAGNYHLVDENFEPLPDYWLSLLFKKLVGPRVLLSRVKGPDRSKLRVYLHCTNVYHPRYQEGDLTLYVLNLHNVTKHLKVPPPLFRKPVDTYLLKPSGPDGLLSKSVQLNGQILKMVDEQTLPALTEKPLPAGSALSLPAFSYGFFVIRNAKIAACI
Put plainly: Inhibition of heparanase activity (degradation of labeled ECM heparan sulfate). It counts as biochemical. The conditions noted are these: 24 hours incubation with labeled ECM. On the procedure: Heparanase is an endoglucuronidase capable of degrading […] (HS) at specific intrachain sites.
The ability of compounds of the present invention to inhibit lymphomacell derived heparanase is tested in the assay system described by Vlodavsky et al., Cancer Research 43, 2704-2711 (1983). […] labeled ECM is incubated for 24 hours with ESb mouse lymphoma heparanase in the presence of various concentrations of the oligomers tested. Degradation of the HS is followed by gel filtration of the supematants. Heparanase activity is expressed as the total amount of labeled low-molecular-weight fragments released from the EMC substrate.

As for `Cc1cc(O)c(Cc2cc(O)c(Cc3cc(O)c(Cc4cc(O)c(Cc5cc(O)c(Cc6cc(O)c(Cc7cc(O)c(Cc8cc(O)ccc8CCC(=O)O)cc7CCC(=O)O)cc6CCC(=O)O)cc5CCC(=O)O)cc4CCC(=O)O)cc3CCC(=O)O)cc2CCC(=O)O)cc1CCC(=O)O` [Ex 4, 5-[4-[4-[4-[4-[4-[4-[[2-(2-carboxyethyl)-5-hydroxy]benzyl]-[2-(2-carboxyethyl)-5-hydroxy]benzyl]-[2-(2-carboxyethyl)-5-hydroxy]benzyl]-[2-(2-carboxyethyl)-5-hydroxy]benzyl]-[2-(2-carboxyethyl)-5-hydroxy]benzyl]-[2-(2-carboxyethyl)-5-hydroxy]benzyl]-[2-(2-carboxyethyl)-5-hydroxy]benzyl]-4-hydroxy-2-methylhydrocinnamic acid], the “Platelet Aggregation IC50” value in assay [1] was more than 1000 µg/mL. Also, in assay [2], the “% Inhibition of Heparanase Activity (5µg/ml)” value is reported as 2%.

(Values after EP0585371B1, “AROMATIC OLIGOMERIC COMPOUNDS USEFUL AS MIMICS OF BIOACTIVE MACROMOLECULES” (RHONE-POULENC RORER INTERNATIONAL (HOLDINGS) INC., priority 1991, dated 1992).)
